Patent publication US6656948B2, “Cytotoxic compounds: derivatives of the pyrido[2,3,4-kl]acridine ring system” (Universidad Complutense de Madrid, priority 1998, dated 2003)

Legend:
Assay type in all cases: cell-based
[1] = tested on: MEL-28 (ATCC HTB-38, monolayer culture of a human melanoma); assay: Cytotoxicity against MEL-28 cells, crystal violet staining, approximate IC50; details: SK-MEL-28, 72 h, three days of incubation
Description: (§1) Its antitumor activity has been detected in vitro by culturing the tumor cells following the methodology described by Bergeron et al. ^16, and by Schroeder et al ^16. Activity against different tumors as mouse lymphoma, human NSC lung carcinoma, human melanoma and human colon carcinoma has been observed.
(§2) Biological activity: Cells were maintained in logarithmic phase of growth in Eagle's Minimum Essential Medium, with Earle's Balanced Salts, with 2.0 mM L-glutamine, with non-essential amino acids, without sodium bicarbonate (EMEM/neaa); suplemented with 10% Fetal Calf Serum (FCS), 10^−2 M sodium bicarbonate and 0,1 g/l penicillin-G+ streptomycin sulfate.
(§3) The tumor cell lines employed have been P-388 (ATCC CCL-46, suspension culture of a lymphoid neoplasm from DBA/2 mouse), A-549 (ATCC CCL-185, monolayer culture of a human lung carcinoma), HT-29 (ATCC HTB-38, monolayer culture of a human colon carcinoma) and MEL-28 (ATCC […], monolayer culture of a human melanoma).
(§4) A-549, HT-29 and MEL-28 were seeded into 16 mm wells at 2×10^4 cells per well in 1 ml aliquots of MEM 10FCS containing the indicated concentration of drug. A separate set of cultures without drug was seeded as control growth to ensure that cells remained in exponential phase of growth. All determinations were carried out in duplicate. After three days of incubation at 37° C., 10% CO2 in a 98% humide atmosphere, the wells were stained with 0.1% Crystal Violet. An aproximate IC50 was determined by comparing the growth in wells with drug to the growth in wells control.
(§5) In Table I are presented the cytotoxicity expressed as IC50 in μg/ml and μM

[2] = tested on: several mammalian cancer cell lines; assay: In vitro antitumor activity by culturing tumor cells (overall statement); details: mouse lymphoma, human NSC lung carcinoma, human melanoma, human colon carcinoma
Excerpt: as §1

[3] = tested on: P-388 (ATCC CCL-46, suspension culture of a lymphoid neoplasm from DBA/2 mouse); assay: Cytotoxicity against P-388 cells, approximate IC50 from growth versus control wells; details: P388, 72 h, three days of incubation
Description: as §1, §2, §3
as §4, with “P-388 cells” for “A-549, HT-29 and MEL-28”, “1×10^4” for “2×10^4”, “5FCS” for “10FCS”, “an” for “the wells were stained with 0.1% Crystal Violet. An”
as §5

[4] = tested on: HT-29 (ATCC HTB-38, monolayer culture of a human colon carcinoma); assay: Cytotoxicity against HT-29 cells, crystal violet staining, approximate IC50; details: HT-29, 72 h, three days of incubation
Description: as §1, §2, §3, §4, §5

[5] = tested on: A-549 (ATCC CCL-185, monolayer culture of a human lung carcinoma); assay: Cytotoxicity against A-549 cells, crystal violet staining, approximate IC50; details: A549, 72 h, three days of incubation
Description: as §1, §2, §3, §4, §5

Compound | IC50 ([1]; duplicate) [µg/mL] | IC50 ([1]; value in brackets) [nM] | antitumor activity against several mammalian cancer cell lines [2] | IC50 ([3]; duplicate) [µg/mL] | IC50 ([3]; value in brackets) [nM] | IC50 ([4]; duplicate) [µg/mL] | IC50 ([4]; value in brackets) [nM] | IC50 ([5]; duplicate) [µg/mL] | IC50 ([5]; value in brackets) [nM]
Cc1cc(=O)[nH]c2c1-c1nc3ccccc3c3ccnc(c13)C2=O [IB-96213, 12-Methyl-9H-benzo[b]pyrido[4,3,2-d,e](1,7)phenantroline-8,10-dione] | 0.001 | 3 | good antitumor activity | 0.1 | 320 | 1 | 3180 | 0.001 | 3
O=C1c2c(O)ccnc2-c2nc3ccccc3c3ccnc1c23 [IB-98205, 9-hydroxybenzo[b]pyrido[4,3,2-d,e](1,10)phenantrolin-8-one] | 0.05 | 170 | good antitumor activity | 1.25 | 4180 | 0.12 | 400 | 0.012 | 40
